Our source for the IC50 values is patent publication US10550105B2 (Ribon Therapeutics Inc., priority 2018, dated 2020).

The target of the assay is PARP7 (Homo sapiens (Human), UniProt Q7Z3E1). Description: Enzymatic assay for inhibition of PARP7: TR-FRET displacement of biotinylated Probe A from the TIPARP active site. It counts as binding. The note with it: Table A-1. Put shortly: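 Compound dose-response series were incubated with TIPARP and biotinylated Probe A, with a final 30 min step at 25 °C. TR-FRET was read at 320 nm excitation, 615/665 nm emission and 90 μs delay, using the 665/615 ratio to measure complex formation. % inhibition was fitted with a floating or fixed (1) Hill coefficient.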
PARP7, sequence (Q7Z3E1 whole entry): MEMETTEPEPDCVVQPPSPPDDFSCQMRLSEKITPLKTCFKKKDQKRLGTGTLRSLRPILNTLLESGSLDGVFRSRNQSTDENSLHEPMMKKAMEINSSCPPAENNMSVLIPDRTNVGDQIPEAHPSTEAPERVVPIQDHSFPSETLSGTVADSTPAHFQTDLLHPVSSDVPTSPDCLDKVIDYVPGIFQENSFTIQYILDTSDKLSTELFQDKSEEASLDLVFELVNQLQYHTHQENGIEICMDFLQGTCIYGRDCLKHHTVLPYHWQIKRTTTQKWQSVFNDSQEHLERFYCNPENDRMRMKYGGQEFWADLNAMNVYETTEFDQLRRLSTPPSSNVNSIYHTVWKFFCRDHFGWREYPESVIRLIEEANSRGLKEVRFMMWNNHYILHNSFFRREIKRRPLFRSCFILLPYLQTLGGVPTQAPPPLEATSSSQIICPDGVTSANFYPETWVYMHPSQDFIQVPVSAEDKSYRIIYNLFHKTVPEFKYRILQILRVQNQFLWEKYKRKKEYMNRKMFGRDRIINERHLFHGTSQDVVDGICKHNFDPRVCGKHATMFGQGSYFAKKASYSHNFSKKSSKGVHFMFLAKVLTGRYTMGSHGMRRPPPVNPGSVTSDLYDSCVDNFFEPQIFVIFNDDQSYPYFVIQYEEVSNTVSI
A general note: In TR-FRET formats the signal depends on donor and acceptor labels being close together.

As a reminder, the IC50 is the concentration at which inhibition is half-maximal. Low readings indicate greater potency, high ones weaker potency. In turn, `CO[C@H]1C[C@@H](COCCC(=O)N2CCN(c3ccc(C#N)cn3)CC2)N(c2cn[nH]c(=O)c2C(F)(F)F)C1` [Example 122, 6-[4-(3-[[(2S,4S)-4-methoxy-1-[6-oxo-5-(trifluoromethyl)-1,6-dihydropyridazin-4-yl]pyrrolidin-2-yl]methoxy]propanoyl)piperazin-1-yl]pyridine-3-carbonitrile] registered an IC50 of less than 100 nM.
`C[C@H](CC(=O)N1CCN(c2ccc(C#N)cn2)CC1)OC[C@@H]1CCCN1c1cn[nH]c(=O)c1C(F)(F)F` [Example 123A, 6-[4-[(3R)-3-[[(2S)-1-[6-oxo-5-(trifluoromethyl)-1,6-dihydropyridazin-4-yl]pyrrolidin-2-yl]methoxy]butanoyl]piperazin-1-yl]pyridine-3-carbonitrile] yielded an IC50 of less than 100 nM.
As to `C[C@@H](CC(=O)N1CCN(c2ccc(C#N)cn2)CC1)OC[C@@H]1CCCN1c1cn[nH]c(=O)c1C(F)(F)F` [Example 123B, 6-[4-[(3S)-3-[[(2S)-1-[6-oxo-5-(trifluoromethyl)-1,6-dihydropyridazin-4-yl]pyrrolidin-2-yl]methoxy]butanoyl]piperazin-1-yl]pyridine-3-carbonitrile], the IC50 is less than 100 nM.
Compound `N#Cc1ccc(N2CCN(C(=O)COCCOCc3cccc4c3CN(c3cn[nH]c(=O)c3C(F)(F)F)C4)CC2)nc1` [Example 124, 6-(4-[2-[2-([2-[6-oxo-5-(trifluoromethyl)-1,6-dihydropyridazin-4-yl]-2,3-dihydro-1H-isoindol-4-yl]methoxy)ethoxy]acetyl]piperazin-1-yl)pyridine-3-carbonitrile] showed an IC50 of less than 100 nM.
In turn, `N#Cc1ccc(N2CCN(C(=O)N3CC(OC[C@@H]4CCCN4c4cn[nH]c(=O)c4C(F)(F)F)C3)CC2)nc1` [Example 125, 6-[4-(3-[[(2S)-1-[6-oxo-5-(trifluoromethyl)-1,6-dihydropyridazin-4-yl]pyrrolidin-2-yl]methoxy]azetidine-1-carbonyl)piperazin-1-yl]pyridine-3-carbonitrile] showed an IC50 of less than 100 nM.
In turn, `N#Cc1ccc(N2CCN(C(=O)NCCOC[C@@H]3CCCN3c3cn[nH]c(=O)c3C(F)(F)F)CC2)nc1` [Example 126, 4-(5-cyanopyridin-2-yl)-N-(2-[[(2S)-1-[6-oxo-5-(trifluoromethyl)-1,6-dihydropyridazin-4-yl]pyrrolidin-2-yl]methoxy]ethyl)piperazine-1-carboxamide] had an IC50 of less than 100 nM.
`N#Cc1ccc(N2CCN(C(=O)CCOC[C@@H]3CCCN3c3cn[nH]c(=O)c3C#N)CC2)nc1` [Example 127, 5-[(2S)-2-([3-[4-(5-cyanopyridin-2-yl)piperazin-1-yl]-3-oxopropoxy]methyl)pyrrolidin-1-yl]-3-oxo-2,3-dihydropyridazine-4-carbonitrile]: the IC50 is less than 100 nM.
For `C[C@@H](COC[C@@H]1CCCN1c1cn[nH]c(=O)c1C(F)(F)F)CC(=O)N1CCN(c2ccc(C#N)cn2)CC1` [Example 128A], the IC50 was less than 100 nM.
For `C[C@H](COC[C@@H]1CCCN1c1cn[nH]c(=O)c1C(F)(F)F)CC(=O)N1CCN(c2ccc(C#N)cn2)CC1` [Example 128B] the value was less than 100 nM.
`N#Cc1ccc(N2CCN(C(=O)N3CC[C@@H](OC[C@@H]4CCCN4c4cn[nH]c(=O)c4C(F)(F)F)C3)CC2)nc1` [Example 129A, 6-[4-[(3R)-3-[[(2S)-1-[6-oxo-5-(trifluoromethyl)-1,6-dihydropyridazin-4-yl]pyrrolidin-2-yl]methoxy]pyrrolidine-1-carbonyl]piperazin-1-yl]pyridine-3-carbonitrile] registered an IC50 of 100 to 1000 nM.
The compound `N#Cc1ccc(N2CCN(C(=O)N3CC[C@H](OC[C@@H]4CCCN4c4cn[nH]c(=O)c4C(F)(F)F)C3)CC2)nc1` [Example 129B, 6-[4-[(3S)-3-[[(2S)-1-[6-oxo-5-(trifluoromethyl)-1,6-dihydropyridazin-4-yl]pyrrolidin-2-yl]methoxy]pyrrolidine-1-carbonyl]piperazin-1-yl]pyridine-3-carbonitrile] yielded an IC50 of less than 100 nM.
`N#Cc1ccc(N2CCN(C(=O)CCOCC3CCCCN3c3cn[nH]c(=O)c3C(F)(F)F)CC2)nc1` (centres unmarked) [Example 130, 6-[4-[3-([1-[6-oxo-5-(trifluoromethyl)-1,6-dihydropyridazin-4-yl]piperidin-2-yl]methoxy)propanoyl]piperazin-1-yl]pyridine-3-carbonitrile]: the IC50 was in the range of 100 to 1000 nM.
`N#Cc1ccc(N2CCN(C(=O)CCOCC3CCCCN3c3cn[nH]c(=O)c3Br)CC2)nc1` (centres unmarked) [Example 131, 6-(4-(3-((1-(5-bromo-6-oxo-1,6-dihydropyridazin-4-yl)piperidin-2-yl)methoxy)propanoyl)piperazin-1-yl)nicotinonitrile]: the IC50 was 100 to 1000 nM.
In the case of `N#Cc1ccc(N2CCN(C(=O)CCNC(=O)C[C@@H]3CCCN3c3cn[nH]c(=O)c3C(F)(F)F)CC2)nc1` [Example 132, N-[3-[4-(5-cyanopyridin-2-yl)piperazin-1-yl]-3-oxopropyl]-2-[(2S)-1-[6-oxo-5-(trifluoromethyl)-1,6-dihydropyridazin-4-yl]pyrrolidin-2-yl]acetamide], the IC50 lay within 100 to 1000 nM.
`N#Cc1ccc(N2CCN(C(=O)CCOC[C@@H]3C[C@H](C(F)(F)F)CN3c3cn[nH]c(=O)c3C(F)(F)F)CC2)nc1` [Example 133, 6-[4-(3-[[(2S,4S)-1-[6-oxo-5-(trifluoromethyl)-1,6-dihydropyridazin-4-yl]-4-(trifluoromethyl)pyrrolidin-2-yl]methoxy]propanoyl)piperazin-1-yl]pyridine-3-carbonitrile] had an IC50 of less than 100 nM.
Consider `N#Cc1ccc(N2CCN(CCC(=O)NC[C@@H]3CCCN3c3cn[nH]c(=O)c3C(F)(F)F)CC2)nc1` [Example 134, (S)-3-(4-(5-cyanopyridin-2-yl)piperazin-1-yl)-N-((1-(6-oxo-5-(trifluoromethyl)-1,6-dihydropyridazin-4-yl)pyrrolidin-2-yl)methyl)propanamide], for which the IC50 was not below 1000 nM.
As for `N#Cc1ccc(N2CCN(C(=O)CCNC[C@@H]3CCCN3c3cn[nH]c(=O)c3C(F)(F)F)CC2)nc1` [Example 135, 6-[4-[3-([[(2S)-1-[6-oxo-5-(trifluoromethyl)-1,6-dihydropyridazin-4-yl]pyrrolidin-2-yl]methyl]amino)propanoyl]piperazin-1-yl]pyridine-3-carbonitrile], the IC50 is less than 100 nM.
For `CN(CCC(=O)N1CCN(c2ccc(C#N)cn2)CC1)C[C@@H]1CCCN1c1cn[nH]c(=O)c1C(F)(F)F` [Example 136, (S)-6-(4-(3-(methyl((1-(6-oxo-5-(trifluoromethyl)-1,6-dihydropyridazin-4-yl)pyrrolidin-2-yl)methyl)amino)propanoyl)piperazin-1-yl)nicotinonitrile] the value was less than 100 nM; for `N#Cc1ccc(N2CCN(C(=O)CCOC[C@@H]3c4ncccc4CN3c3cn[nH]c(=O)c3C(F)(F)F)CC2)nc1` [Example 137A, 6-[4-(3-[[(7S)-6-[6-oxo-5-(trifluoromethyl)-1,6-dihydropyridazin-4-yl]-5H,6H,7H-pyrrolo[3,4-b]pyridin-7-yl]methoxy]propanoyl)piperazin-1-yl]pyridine-3-carbonitrile], less than 100 nM; for `N#Cc1ccc(N2CCN(C(=O)CCOC[C@H]3c4ncccc4CN3c3cn[nH]c(=O)c3C(F)(F)F)CC2)nc1` [Example 137B, 6-[4-(3-[[(7R)-6-[6-oxo-5-(trifluoromethyl)-1,6-dihydropyridazin-4-yl]-5H,6H,7H-pyrrolo[3,4-b]pyridin-7-yl]methoxy]propanoyl)piperazin-1-yl]pyridine-3-carbonitrile], less than 100 nM.
As for `CN(C[C@@H]1CCCN1c1cn[nH]c(=O)c1C(F)(F)F)C(=O)CCN1CCN(c2ccc(C#N)cn2)CC1` [Example 138, 3-[4-(5-cyanopyridin-2-yl)piperazin-1-yl]-N-methyl-N-[[(2S)-1-[6-oxo-5-(trifluoromethyl)-1,6-dihydropyridazin-4-yl]pyrrolidin-2-yl]methyl]propanamide], the IC50 is not below 1000 nM.
In turn, `COCC1C[C@@H](COCCC(=O)N2CCN(c3ccc(C#N)cn3)CC2)N(c2cn[nH]c(=O)c2C(F)(F)F)C1` (stereo partly drawn) [Example 139, 6-[4-(3-[[(2S)-4-(methoxymethyl)-1-[6-oxo-5-(trifluoromethyl)-1,6-dihydropyridazin-4-yl]pyrrolidin-2-yl]methoxy]propanoyl)piperazin-1-yl]pyridine-3-carbonitrile] returned an IC50 of less than 100 nM.
Compound `C[C@@H](OCCC(=O)N1CCN(c2ccc(C#N)cn2)CC1)[C@@H]1CCCN1c1cn[nH]c(=O)c1C(F)(F)F` [Example 140A, 6-(4-[3-[(1R)-1-[(2S)-1-[6-oxo-5-(trifluoromethyl)-1,6-dihydropyridazin-4-yl]pyrrolidin-2-yl]ethoxy]propanoyl]piperazin-1-yl)pyridine-3-carbonitrile] displayed a 50% inhibitory concentration (IC50) of less than 100 nM.
As for `C[C@H](OCCC(=O)N1CCN(c2ccc(C#N)cn2)CC1)[C@@H]1CCCN1c1cn[nH]c(=O)c1C(F)(F)F` [Example 140B, 6-(4-[3-[(1S)-1-[(2S)-1-[6-oxo-5-(trifluoromethyl)-1,6-dihydropyridazin-4-yl]pyrrolidin-2-yl]ethoxy]propanoyl]piperazin-1-yl)pyridine-3-carbonitrile], the IC50 was 100 to 1000 nM.
For `N#Cc1ccc(N2CCN(C(=O)C[C@@H]3CC[C@@H]([C@@H]4CCCN4c4cn[nH]c(=O)c4C(F)(F)F)O3)CC2)nc1` [Example 141A, 6-(4-[2-[(2S,5S)-5-[(2S)-1-[6-oxo-5-(trifluoromethyl)-1,6-dihydropyridazin-4-yl]pyrrolidin-2-yl]oxolan-2-yl]acetyl]piperazin-1-yl)pyridine-3-carbonitrile] the value was less than 100 nM; for `N#Cc1ccc(N2CCN(C(=O)C[C@@H]3CC[C@H]([C@@H]4CCCN4c4cn[nH]c(=O)c4C(F)(F)F)O3)CC2)nc1` [Example 141C, 6-(4-[2-[(2S,5R)-5-[(2S)-1-[6-oxo-5-(trifluoromethyl)-1,6-dihydropyridazin-4-yl]pyrrolidin-2-yl]oxolan-2-yl]acetyl]piperazin-1-yl)pyridine-3-carbonitrile], 100 to 1000 nM.
